Data reported in patent publication US9233108B2 (ALMIRALL, S.A., priority 2011, dated 2016).

How the values were obtained:
[1] = molecular target: human muscarinic M3 receptors (Homo sapiens (Human), UniProt P20309); assay: Human muscarinic M3 receptor binding assay; settings: CHO-K1 cell membranes, [3H]-NMS radioligand
Procedure: Test 2: Human Muscarinic M1, M2, M3, M4 and M5 receptors binding assays
The study of binding to human muscarinic M1, M2, M3, M4 and M5 receptors was performed using commercial membranes (Perkin Elmer) prepared from CHO-K1 cells. Radioligand binding experiments were conducted in 96 polypropylene well plates in a total volume of 200 μl. All reagents were dissolved in assay binding buffer (PBS with calcium and magnesium, SIGMA), except compounds that were dissolved in DMSO 100%. Non-specific binding (NSB) was measured in the presence of 1 μM atropine. [3H]-NMS was used as the radioligand at a concentration of 1 nM for M2, M3 and M5 and 0.3 nM for M1 and M4. [3H]-NMS and antagonists were incubated with membranes that express human muscarinic receptors M1, M2, M3, M4 and M5 at concentrations of 8.1, 10, 4.9, 4.5 and 4.9 μg/well, respectively.
After an incubation period of two hours with gentle shaking, 150 μl of the reaction mix were transferred to 96 GF/C filter plates (Millipore), previously treated with wash buffer (Tris 50 mM; NaCl 100 mM; pH: 7.4), containing 0.05% PEI (Sigma) during one hour. Bound and free [3H]-NMS were separated by rapid vacuum filtration in a manifold from Millipore and washed four times with ice cold wash buffer. After drying 30 min, 30 μl of OPTIPHASE Supermix were added to each well and radioactivity quantified using a Microbeta microplate scintillation counter.
The affinity of each test compound to the receptors was determined by using ten different concentrations ran in duplicate. IC50s were calculated using Activity Base software from IDBS and the four parameters-log equation.

[2] = molecular target: human adrenergic beta2 receptors (Homo sapiens (Human), UniProt P07550); assay: Human adrenergic β2 receptor binding assay; settings: Sf9 cell membranes, 3H-CGP12177 radioligand
Procedure: Test 1: Human Adrenergic β1 and β2 Receptor Binding Assays
The study of binding to human adrenergic beta1 and beta2 receptors was performed using commercial membranes prepared from Sf9 cells where they are overexpressed (Perkin Elmer). The membrane suspensions (16 μg/well for beta1 and 5 μg/well for beta2) in assay buffer (75 mM Tris/HCl with 12.5 mM MgCl2 and 2 mM EDTA pH=7.4) were incubated with 0.14 or 0.6 nM of 3H-CGP12177 (Amersham) for beta 1 and beta 2 receptors respectively in a final volume of 250 μl, in GFC Multiscreen 96 well plates (Millipore) previously treated with assay buffer containing 0.3% PEI (Sigma). Non specific binding was measured in the presence of 1 μM propanolol. Incubation was maintained for 60 minutes at room temperature and with gentle shaking. The binding reactions were terminated by filtration and washing with 2.5 volumes of Tris/HCl 50 mM pH=7.4. The affinity of each test compound to the receptor was determined by using ten different concentrations ran in duplicate. IC50s were calculated using Activity Base software from IDBS and the four parameters-log equation.

Sequence of human muscarinic M3 receptors (P20309 whole entry): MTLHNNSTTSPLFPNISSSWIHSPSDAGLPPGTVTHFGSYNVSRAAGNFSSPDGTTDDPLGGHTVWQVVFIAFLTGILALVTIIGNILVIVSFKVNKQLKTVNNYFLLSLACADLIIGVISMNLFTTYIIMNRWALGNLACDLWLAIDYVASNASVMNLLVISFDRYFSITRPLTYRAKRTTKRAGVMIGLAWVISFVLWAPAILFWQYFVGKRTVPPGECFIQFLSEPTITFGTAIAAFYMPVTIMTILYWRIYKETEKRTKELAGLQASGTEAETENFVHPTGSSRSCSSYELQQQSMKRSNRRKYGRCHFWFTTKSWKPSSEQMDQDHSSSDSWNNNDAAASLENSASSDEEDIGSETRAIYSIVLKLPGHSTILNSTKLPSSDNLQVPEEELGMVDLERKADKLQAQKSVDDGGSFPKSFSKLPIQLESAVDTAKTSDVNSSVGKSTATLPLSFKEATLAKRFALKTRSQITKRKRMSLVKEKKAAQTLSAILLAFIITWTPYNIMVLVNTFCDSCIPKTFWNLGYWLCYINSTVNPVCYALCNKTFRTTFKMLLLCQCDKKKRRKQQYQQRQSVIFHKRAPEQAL

Row | Molecule | IC50 [1] | IC50 [2]
1 | COc1cc(-c2noc(CCCN(C)[C@H]3CC[C@H](OC(=O)C(O)(c4cccs4)c4cccs4)CC3)n2)c(Cl)cc1CNC[C@H](O)c1ccc(O)c2[nH]c(=O)ccc12 (relative stereo) [Example 9, trans-4-[(3-{3-[2-chloro-4-({[(2R)-2-hydroxy-2-(8-hydroxy-2-oxo-1,2-dihydroquinolin-5-yl)ethyl]amino}methyl)-5-methoxyphenyl]-1,2,4-oxadiazol-5-yl}propyl)(methyl)amino]cyclohexylhydroxy(di-2-thienyl)acetate dihydrofluoride] | 0.2 nM | 2.2 nM
2 | CN(CCCn1c(=O)oc2cc(CCNC[C@H](O)c3ccc(O)c4[nH]c(=O)ccc34)ccc21)[C@H]1CC[C@H](OC(=O)C(O)(c2cccs2)c2cccs2)CC1 (relative stereo) [Example 19, trans-4-[{3-[6-(2-{[(2R)-2-hydroxy-2-(8-hydroxy-2-oxo-1,2-dihydroquinolin-5-yl)ethyl]amino}ethyl)-2-oxo-1,3-benzoxazol-3(2H)-yl]propyl}(methyl)amino]cyclohexylhydroxy(di-2-thienyl)acetate dihydrofluoride] | 0.8 nM | 62 nM
3 | trans-4-[{3-[6-({[(2R)-2-hydroxy-2-(8-hydroxy-2-oxo-1,2-dihydroquinolin-5-yl)ethyl]amino}methyl)-2-oxo-1,3-benzothiazol-3(2H)-yl]propyl}(methyl)amino]cyclohexylhydroxy(di-2-thienyl)acetate dihydrofluoride [Example 11] | 0.5 nM | 4.2 nM
4 | trans-4-[(3-{3-[4-({[(2R)-2-hydroxy-2-(8-hydroxy-2-oxo-1,2-dihydroquinolin-5-yl)ethyl]amino}methyl)phenyl]-1,2,4-oxadiazol-5-yl}propyl)(methyl)amino]cyclohexylhydroxy(di-2-thienyl)acetate dihydrofluoride [Example 5] | 0.4 nM | 2.7 nM
5 | trans-4-[{3-[5-({[(2R)-2-hydroxy-2-(8-hydroxy-2-oxo-1,2-dihydroquinolin-5-yl)ethyl]amino}methyl)-2-oxo-2,3-dihydro-1H-benzimidazol-1-yl]propyl}(methyl)amino]cyclohexylhydroxy(di-2-thienyl)acetate dihydrofluoride [Example 2] | 0.4 nM | 120 nM
6 | CC(Cc1ccc(OCC(=O)NCCN[C@H]2CC[C@H](OC(=O)C(O)(c3cccs3)c3cccs3)CC2)cc1)NC[C@H](O)c1ccc(O)c2[nH]c(=O)ccc12 (relative stereo) [Example 20] | 3.6 nM | 3.1 nM
